Data as given in US20240158446A1, “CYCLIC COMPOUND HAVING SELECTIVE INHIBITORY ACTION ON KRAS OVER HRAS AND NRAS” (CHUGAI SEIYAKU KABUSHIKI KAISHA, priority 2021, published 2024).

Columns and labels:
[1] = molecular target: GDP-bound NRAS wild-type protein (Homo sapiens, UniProt P01111); experiment: Binding to NRAS by surface plasmon resonance (SPR), Single Cycle Kinetics; conditions: for NRAS/KRAS (ratio of KD value with respect to GDP-bound NRAS wild-type protein to KD value with respect to KRAS): SPR KD ratio NRAS/KRAS, class symbols
[2] = molecular target: GDP-bound HRAS wild-type protein (Homo sapiens, UniProt P01112); experiment: Binding to HRAS by surface plasmon resonance (SPR), Single Cycle Kinetics; conditions: for HRAS/KRAS (ratio of KD value with respect to GDP-bound HRAS wild-type protein to KD value with respect to KRAS): SPR KD ratio HRAS/KRAS, class symbols
[3] = SPR, GDP-bound NRAS wild-type protein vs GDP-bound KRAS wild-type protein, KD ratio class
[4] = SPR, GDP-bound HRAS wild-type protein vs GDP-bound KRAS wild-type protein, KD ratio class
[5] = SPR, GDP-bound NRAS wild-type protein vs GDP-bound KRAS wild-type protein
[6] = SPR, GDP-bound HRAS wild-type protein vs GDP-bound KRAS wild-type protein

GDP-bound HRAS wild-type protein, sequence (P01112 whole entry): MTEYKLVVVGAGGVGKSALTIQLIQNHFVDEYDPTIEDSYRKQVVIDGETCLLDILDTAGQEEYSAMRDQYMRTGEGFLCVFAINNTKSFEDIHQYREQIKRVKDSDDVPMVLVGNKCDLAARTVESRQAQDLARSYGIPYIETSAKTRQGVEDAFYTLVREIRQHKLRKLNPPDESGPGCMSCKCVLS
GDP-bound NRAS wild-type protein, sequence (P01111 whole entry): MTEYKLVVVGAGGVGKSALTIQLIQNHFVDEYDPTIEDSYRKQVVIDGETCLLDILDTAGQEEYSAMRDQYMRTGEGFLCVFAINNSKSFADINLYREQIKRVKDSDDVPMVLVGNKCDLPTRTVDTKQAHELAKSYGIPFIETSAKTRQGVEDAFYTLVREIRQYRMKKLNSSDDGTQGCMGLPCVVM

Structure (SMILES)	NRAS/KRAS (ratio of KD value for NRAS to KD value for KRAS) [1, 5]	HRAS/KRAS (ratio of KD value for HRAS to KD value for KRAS) [2, 6]	further results
CCO[C@@H]1C[C@H]2C(=O)NC3(CCC3)C(=O)N(C)[C@@H](C3CCCC3)C(=O)N(C)[C@H](C)CC(=O)N(C)[C@@H](CC(C)C)C(=O)N[C@@H]([C@@H](C)CC)C(=O)N(C)CC(=O)N(C)[C@H]3C/C=C\CCN(C3=O)[C@@H](Cc3ccc(F)cc3)C(=O)N(C)CC(=O)N[C@@H](CCc3cc(F)c(C(F)(F)F)c(F)c3)C(=O)N2C1 [PP1494]			NRAS/KRAS (ratio of KD value for NRAS to KD value for KRAS) [1, 3]: B (a compound having 3 or more and less than 10 is denoted as B); HRAS/KRAS (ratio of KD value for HRAS to KD value for KRAS) [2, 4]: B (a compound having 3 or more and less than 10 is denoted as B)
C#CC[C@H]1C(=O)N[C@@H]([C@@H](C)CC)C(=O)N(C)CC(=O)N(C)[C@H]2C/C=C\CCN(C2=O)[C@@H](Cc2ccc(C(F)(F)F)cc2)C(=O)N(C)CC(=O)N[C@@H](CCc2ccc(C(F)(F)F)c(OC)c2)C(=O)N2C[C@@H](C)C[C@H]2C(=O)NC2(CC(C)(C)C2)C(=O)N(C)[C@@H](C2CCCC2)C(=O)N(C)[C@H](C(=O)N(C)CCC)CC(=O)N1C [PP2057]	A (a compound having 10 or more and less than 20 is denoted as A)	A (a compound having 10 or more and less than 20 is denoted as A)	
CCOC[C@H]1C(=O)N[C@@H]([C@@H](C)CC)C(=O)N(C)CC(=O)N(C)[C@H]2C/C=C\CCN(C2=O)[C@@H](Cc2ccc(C)cc2F)C(=O)N(C)CC(=O)N[C@@H](CCc2ccc(C(F)(F)F)c(OC)c2)C(=O)N2C[C@@H](C)C[C@H]2C(=O)NC2(CC(C)(C)C2)C(=O)N(C)[C@@H](C2CCCC2)C(=O)N(C)[C@H](C(=O)N(C)CC)CC(=O)N1C [PP2697]			NRAS/KRAS (ratio of KD value with respect to GDP-bound NRAS wild-type protein to KD value with respect to KRAS) [1]: A (a compound having 10 or more and less than 20 is denoted as A); HRAS/KRAS (ratio of KD value with respect to GDP-bound HRAS wild-type protein to KD value with respect to KRAS) [2]: A (a compound having 10 or more and less than 20 is denoted as A)
CCO[C@@H]1C[C@H]2C(=O)NC3(CCC3)C(=O)N(C)[C@@H](C3CCCC3)C(=O)N(C)[C@H](C(=O)N(C)CC)CC(=O)N(C)[C@@H](CC3CCCC3)C(=O)N[C@@H]([C@@H](C)CC)C(=O)N(C)CC(=O)N(C)[C@H]3C/C=C\CCN(C3=O)[C@@H](Cc3ccc(C(F)(F)F)cc3)C(=O)N(C)CC(=O)N[C@@H](CCc3ccc(C(F)(F)F)c(OC)c3)C(=O)N2C1 [PP1573]			NRAS/KRAS (ratio of KD value for NRAS to KD value for KRAS) [1, 3]: A (a compound having 10 or more and less than 20 is denoted as A); HRAS/KRAS (ratio of KD value for HRAS to KD value for KRAS) [2, 4]: A (a compound having 10 or more and less than 20 is denoted as A)
CCCCO[C@H]1CCN2C(=O)[C@H](CCc3cc(F)c(C(F)(F)F)c(F)c3)NC(=O)CN(C)C(=O)[C@H](Cc3ccc(C(F)(F)F)cc3)N3CCCCC[C@@H](C3=O)N(C)C(=O)CN(C)C(=O)[C@H]([C@@H](C)CC)NC(=O)[C@H](CC(C)C)N(C)C(=O)C[C@@H](C(=O)N3CCOCC3)N(C)C(=O)[C@H](C3CCCC3)N(C)C(=O)C3(CCC3)NC(=O)[C@H]12 [PP1009]	B (a compound having 3 or more and less than 10 is denoted as B)	B (a compound having 3 or more and less than 10 is denoted as B)	
CC[C@H](C)[C@@H]1NC(=O)[C@H](CC2CC2)N(C)C(=O)C[C@@H](C(=O)N2CCCC2)N(C)C(=O)[C@H](C2CCCC2)N(C)C(=O)C2(CCCC2)NC(=O)[C@@H]2C[C@@H](C(F)(F)F)CN2C(=O)[C@H](CCc2cc(F)c(C(F)(F)F)c(F)c2)NC(=O)CN(C)C(=O)[C@H](Cc2ccc(F)cc2)N2CC/C=C\C[C@@H](C2=O)N(C)C(=O)CN(C)C1=O [PP1509]			NRAS/KRAS (ratio of KD value for NRAS to KD value for KRAS) [1, 3]: A (a compound having 10 or more and less than 20 is denoted as A); HRAS/KRAS (ratio of KD value for HRAS to KD value for KRAS) [2, 4]: A (a compound having 10 or more and less than 20 is denoted as A)
CC[C@H](C)[C@@H]1NC(=O)[C@H](CC(C)C)N(C)C(=O)C[C@@H](C(=O)N2CCOCC2)N(C)C(=O)[C@H](C2CCCC2)N(C)C(=O)C2(CCC2)NC(=O)[C@@H]2C[C@@H](OCCC(F)(F)F)CN2C(=O)[C@H](CCc2cc(F)c(C(F)(F)F)c(F)c2)NC(=O)CN(C)C(=O)[C@H](Cc2ccc(C(F)(F)F)cc2)N2CCCC[C@@H](C2=O)N(C)C(=O)CN(C)C1=O (stereo in doubt) [PP0998]	B (a compound having 3 or more and less than 10 is denoted as B)	B (a compound having 3 or more and less than 10 is denoted as B)	
CC[C@H](C)[C@@H]1NC(=O)[C@H](CC(C)C)N(C)C(=O)C[C@@H](C(=O)N2CCOCC2)N(C)C(=O)[C@H](C2CCCC2)N(C)C(=O)C2(CCC2)NC(=O)[C@@H]2C[C@@H](O)CN2C(=O)[C@H](CCc2cc(F)c(C(F)(F)F)c(F)c2)NC(=O)CN(C)C(=O)[C@H](Cc2ccc(C(F)(F)F)cc2)N2CCCCC[C@@H](C2=O)N(C)C(=O)CN(C)C1=O [PP0871]	B (a compound having 3 or more and less than 10 is denoted as B)	B (a compound having 3 or more and less than 10 is denoted as B)	
CC[C@H](C)[C@@H]1NC(=O)[C@H](CC(C)C)N(C)C(=O)C[C@@H](C(=O)N2CCOCC2)N(C)C(=O)[C@H](C2CCCC2)N(C)C(=O)C2(CCC2)NC(=O)[C@@H]2[C@@H](O)CCN2C(=O)[C@H](CCc2cc(F)c(C(F)(F)F)c(F)c2)NC(=O)CN(C)C(=O)[C@H](Cc2ccc(C(F)(F)F)cc2)N2CCCCC[C@@H](C2=O)N(C)C(=O)CN(C)C1=O [PP0872]	A (a compound having 10 or more and less than 20 is denoted as A)	A (a compound having 10 or more and less than 20 is denoted as A)	
CC[C@H](C)[C@@H]1NC(=O)[C@H](CC(C)C)N(C)C(=O)C[C@@H](C(=O)N2CCOCC2)N(C)C(=O)[C@H](C2CCCC2)N(C)C(=O)C2(CCC2)NC(=O)[C@@H]2[C@H](OC)CCN2C(=O)[C@H](CCc2cc(F)c(C(F)(F)F)c(F)c2)NC(=O)CN(C)C(=O)[C@H](Cc2ccc(C(F)(F)F)cc2)N2CCCC[C@@H](C2=O)N(C)C(=O)CN(C)C1=O [PP1084]	C (A compound having a KD ratio of 0.1 or more and less than 3 is denoted as C)	B (a compound having 3 or more and less than 10 is denoted as B)	
CCCO[C@@H]1C[C@H]2C(=O)N(C)C3(CC(C)(C)C3)C(=O)N(C)[C@@H](C(CC)CC)C(=O)N(C)[C@H](C(=O)N(C)C)CC(=O)N(C)[C@@H](COC)C(=O)N[C@@H]([C@@H](C)CC)C(=O)N(C)CC(=O)N(C)[C@H]3C/C=C\CCN(C3=O)[C@@H](Cc3ccc(C)cc3)C(=O)N(C)CC(=O)N[C@@H](CCc3ccc(Cl)c(Cl)c3)C(=O)N2C1 [PP2812]			NRAS/KRAS (ratio of KD value with respect to GDP-bound NRAS wild-type protein to KD value with respect to KRAS) [1]: AA (a compound having 20 or more is denoted as AA); HRAS/KRAS (ratio of KD value with respect to GDP-bound HRAS wild-type protein to KD value with respect to KRAS) [2]: A (a compound having 10 or more and less than 20 is denoted as A)
CCC[C@H]1C(=O)N[C@@H]([C@@H](C)CC)C(=O)N(C)CC(=O)N(C)[C@H]2C/C=C\CCN(C2=O)[C@@H](Cc2ccc(C(F)(F)F)cc2)C(=O)N(C)CC(=O)N[C@@H](CCc2ccc(C(F)(F)F)c(Cl)c2)C(=O)N2CC3(CC3)C[C@H]2C(=O)NC2(CC(C)(C)C2)C(=O)N(C)[C@@H](CC(F)(F)F)C(=O)N(C)[C@H](C(=O)N(C)C)CC(=O)N1C [PP2985]	AA (a compound having 20 or more is denoted as AA)	A (a compound having 10 or more and less than 20 is denoted as A)	
CCO[C@@H]1C[C@H]2C(=O)NC3(CC(C)(C)C3)C(=O)N(C)[C@@H](C3CCCC3)C(=O)N(C)[C@H](C(=O)N(C)C)CC(=O)N(C)[C@@H](CC(C)C)C(=O)N[C@@H]([C@@H](C)CC)C(=O)N(C)CC(=O)N(C)[C@H]3C/C=C\CCN(C3=O)[C@@H](Cc3ccc4c(c3)CCC4(F)F)C(=O)N(C)CC(=O)N[C@@H](CCc3ccc(C(F)(F)F)c(OC)c3)C(=O)N2C1 [PP2695]			NRAS/KRAS (ratio of KD value with respect to GDP-bound NRAS wild-type protein to KD value with respect to KRAS) [1]: A (a compound having 10 or more and less than 20 is denoted as A); HRAS/KRAS (ratio of KD value with respect to GDP-bound HRAS wild-type protein to KD value with respect to KRAS) [2]: B (a compound having 3 or more and less than 10 is denoted as B)
CCO[C@@H]1C[C@H]2C(=O)NC3(CCC3)C(=O)N(C)[C@@H](C3CCCC3)C(=O)N(CC)[C@H](C(=O)N3CCOCC3)CC(=O)N(C)[C@@H](CC(C)C)C(=O)N[C@@H]([C@@H](C)CC)C(=O)N(C)CC(=O)N(C)[C@H]3CCCCCN(C3=O)[C@@H](Cc3ccc(C(F)(F)F)cc3)C(=O)N(C)CC(=O)N[C@@H](CCc3cc(F)c(C(F)(F)F)c(F)c3)C(=O)N2C1 [PP0638]			NRAS/KRAS (ratio of KD value with respect to NRAS to KD value with respect to KRAS) [1, 5]: B (a compound having 3 or more and less than 10 is denoted as B); HRAS/KRAS (ratio of KD value with respect to HRAS to KD value with respect to KRAS) [2, 6]: B (a compound having 3 or more and less than 10 is denoted as B)
CC[C@H](C)[C@@H]1NC(=O)[C@H](CC(C)C)N(C)C(=O)C[C@@H](C)N(C)C(=O)[C@H](C2CCCC2)N(C)C(=O)C2(CCC2)NC(=O)[C@@H]2CCCN2C(=O)[C@H](CCc2cc(F)c(C(F)(F)F)c(F)c2)NC(=O)CN(C)C(=O)[C@H](Cc2ccc(C(F)(F)F)cc2)N2CC/C=C\C[C@@H](C2=O)N(C)C(=O)CN(C)C1=O [PP1099]	B (a compound having 3 or more and less than 10 is denoted as B)	A (a compound having 10 or more and less than 20 is denoted as A)	
